Values quoted from earlier work, collected in US20100209480A1, “GALENICAL FORMULATIONS OF ORGANIC COMPOUNDS” (priority 2007, published 2010).

Details: drug substance

COCCCOc1cc(C[C@@H](C[C@H](N)[C@@H](O)C[C@H](C(=O)NCC(C)(C)C(N)=O)C(C)C)C(C)C)ccc1OC [Aliskiren, 2(S),4(S),5(S),7(S)—N-(3-amino-2,2-dimethyl-3-oxopropyl)-2,7-di(1-methylethyl)-4-hydroxy-5-amino-8-[4-methoxy-3-(3-methoxy-propoxy)phenyl]-octanamide]
Hygroscopicity: highly hygroscopic
